Experimental data reported in article PMC12700550, “DLL4^+ neutrophils promote Notch1-mediated endothelial PANoptosis to exacerbate acute lung injury in sepsis” (The Journal of Clinical Investigation, 2025).
Several values for one entry are separate records, joined by “and”; a condition that tells them apart may be missing. Equal entries are not always repeated.

Test system: c-caspase-3
Assay: c/t caspase-3 in lungs of CLP mice, Western blot
Assay type: in vivo, mouse
Conditions: 10 mg/kg NDI, 20 h; for lung c/t caspase-3 (Figure 5E): individual mice, 10 mg/kg
Procedure: Sepsis was induced in mice by cecal ligation and puncture (CLP) as described previously ([45], [46]). Mice were anesthetized with isoflurane to a surgical plane and placed in a supine position. CLP was performed through a midline laparotomy. The abdomen was shaved and disinfected. Through a 2 cm midline incision, the cecum was exposed and then ligated with a 4-0 silk suture 1 cm proximal from the distal cecal extremity. For 20-hour CLP experiments, the cecum was punctured twice with a 22-gauge needle. A small amount of cecal content was extruded through both holes, and the ligated cecum was returned to the peritoneal cavity. The wound was closed in layers. For 10-day sepsis survival studies, the cecum was punctured once with a 22-gauge needle. A small amount of cecal content was extruded. Mice were allocated to the vehicle and adoptive transfer of DLL4^+ neutrophils or DLL4^– neutrophils groups. […] Vehicle groups received an equivalent volume of PBS, while treatment groups received NDI 10 mg/kg in […] PBS via retro-orbital injection after CLP. This dose was chosen primarily on the basis of our laboratory’s prior experience, we have consistently used this dose in mouse CLP models with reproducible efficacy and without observable toxicity ([39], [44]). Sham-operated animals underwent a laparotomy without CLP. After closure, the mice received a subcutaneous injection of 0.5 mL of normal saline to overcome surgery-induced dehydration. For 20-hour experiments, animals were not injected with antibiotics; however, for survival studies, animals were given 0.5 mg per kg body weight imipenem (lot 4D21K05, WG Critical Care LLC) subcutaneously in 0.5 mL saline once at the end of CLP. All mice were subcutaneously injected with a single dose of 0.1 mg/kg buprenorphine after CLP.
PVECs and lung tissue were collected in previous steps. Whole-cell proteins were extracted, and the protein concentration was measured using an ABC protein assay kit (catalog 5000002, Bio-Rad). […] Bands were detected using an Odyssey FC Dual-Mode Imaging system 2800 (LI-COR).

## ECAGSPCHNGGTCEDGI [NDI]
DLL4^+ neutrophils + CLP
  lung c/t caspase-3 (Figure 5E): 0.946 and 0.8954 and 1.049 and 0.8952 and 1.09 and 1.113 and 0.9785 and 0.9235 and 1.192
DLL4^+ neutrophils/sepsis
  effect on lung c-caspase-3: attenuated the expression/activation
DLL4^– neutrophils + CLP
  lung c/t caspase-3 (Figure 5E): 1.224 and 1.151 and 0.8027 and 0.9965 and 0.8798 and 1.281
